Key:
human steroid sulfatase = target: T1, human steroid sulfatase (Homo sapiens, UniProt P08842); assay: Dual aromatase and steroid sulfatase activities in JEG-3 cells: sulfatase readout; format: cell-based; conditions: footnote c: dual aromatase and sulfatase activity, nd: not detected, read-out: Sulfatase activity IC50 (nM) ± S.E.M.
T1 construct: The JEG-3 cell line is intrinsically very rich in human estrone sulfatase; endogenous in cells; host or cells: JEG-3 (human placental choriocarcinoma)
T1 sequence (P08842 22-583): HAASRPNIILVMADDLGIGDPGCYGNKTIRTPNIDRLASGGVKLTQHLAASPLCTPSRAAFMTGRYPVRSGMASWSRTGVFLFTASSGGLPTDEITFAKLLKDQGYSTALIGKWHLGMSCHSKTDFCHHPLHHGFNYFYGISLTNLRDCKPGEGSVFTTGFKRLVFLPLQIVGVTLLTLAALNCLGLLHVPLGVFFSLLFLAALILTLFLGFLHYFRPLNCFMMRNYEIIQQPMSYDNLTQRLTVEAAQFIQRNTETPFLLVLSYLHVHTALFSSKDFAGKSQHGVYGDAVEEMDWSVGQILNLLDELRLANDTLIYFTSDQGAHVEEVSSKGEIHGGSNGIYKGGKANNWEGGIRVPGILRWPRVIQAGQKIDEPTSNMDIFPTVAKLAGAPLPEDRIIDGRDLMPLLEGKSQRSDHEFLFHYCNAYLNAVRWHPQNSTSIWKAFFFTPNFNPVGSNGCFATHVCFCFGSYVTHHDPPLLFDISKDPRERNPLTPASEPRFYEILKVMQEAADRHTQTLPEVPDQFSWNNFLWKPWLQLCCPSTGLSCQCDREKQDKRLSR
Description: (§1) The JEG-3 cell line is intrinsically very rich in human estrone sulfatase and therefore is a useful biological system to evaluate new steroid sulfatase inhibitors in vitro. Assays were carried out with cells in logarithmic growth phase on 96-well microplates. 24 h before studies, cells were seeded in decomplemented fetal calf serum (dFCS) supplemented medium. The medium was removed 24 h later and cells were rinsed with PBS to eliminate any trace of dFCS. Then, ^3H-E1S was added in dFCS free medium, followed by test compounds at concentrations ranging from 10^−12 M to 10^−5 M. After 4 h of treatment, the medium was transferred into 96-deep-well microplates and centrifuged at 200×g for 10 min to pellet cells before toluene extraction. A fraction of the medium was used for toluene extraction in order to separate the conjugated substrate from non-conjugated products. The radioactivity in the toluene phase was measured by liquid scintillation counting. In parallel, after cell solubilization in a ethylenediamine tetraacetate solution, DNA content was measured by a standard fluorimetric method using the Hoechst 33258 fluorochrome. Finally, estrone sulfatase activity was expressed in pmoles of ^3H-E1+^3H-E2 formed/4 hours/mg DNA and estrone sulfatase inhibition as a percentage of control activity without inhibitor.
(§2) In order to evaluate the inhibitory potency of DASI compounds in parallel on both human aromatase and steroid sulfatase activities, a new in vitro model was set up using JEG-3 cells. The experimental conditions of the steroid sulfatase model previously described was adopted with slight modifications: the presence of the two substrates ^3-HE1S and 1β-^3H-androstenedione into the medium and an incubation period of 2 hours. Results were expressed in pmoles of product formed (^3H-E1+^3H-E2 or ^3H2O)/2 hours/mg DNA (Table 1).

human aromatase = target: T2, human aromatase (Homo sapiens, UniProt P11511); assay: Dual aromatase and steroid sulfatase activities in JEG-3 cells: aromatase readout; format: cell-based; conditions: footnote c: dual aromatase and sulfatase activity, nd: not detected, read-out: Aromatase activity IC50 (nM) ± S.E.M.
T2 construct: The JEG-3 cell line, derived from a human placental choriocarcinoma, constitutively overexpresses human aromatase; endogenous in cells; host or cells: JEG-3 (human placental choriocarcinoma)
T2 sequence (P11511 1-503): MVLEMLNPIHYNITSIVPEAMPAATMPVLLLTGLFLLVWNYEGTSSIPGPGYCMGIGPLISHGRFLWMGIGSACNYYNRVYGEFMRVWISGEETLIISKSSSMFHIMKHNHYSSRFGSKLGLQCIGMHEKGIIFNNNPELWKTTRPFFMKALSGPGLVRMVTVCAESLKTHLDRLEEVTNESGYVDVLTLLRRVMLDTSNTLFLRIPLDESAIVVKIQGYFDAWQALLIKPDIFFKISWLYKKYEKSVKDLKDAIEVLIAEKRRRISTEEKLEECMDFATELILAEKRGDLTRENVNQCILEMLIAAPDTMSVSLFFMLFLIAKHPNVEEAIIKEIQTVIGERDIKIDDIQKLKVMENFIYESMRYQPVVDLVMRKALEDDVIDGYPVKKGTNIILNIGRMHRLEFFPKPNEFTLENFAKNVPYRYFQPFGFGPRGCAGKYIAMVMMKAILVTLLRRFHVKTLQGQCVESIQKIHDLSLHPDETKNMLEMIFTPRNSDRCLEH
Description: as §1, with “Assays” for “The JEG-3 cell line is intrinsically very rich in human estrone sulfatase and therefore is a useful biological system to evaluate new steroid sulfatase inhibitors in vitro. Assays”, “In parallel, after cell solubilization in a ethylenediamine tetraacetate solution, DNA content was measured by a standard fluorimetric method using the Hoechst 33258 fluorochrome.” left out
as §2

aromatase = assay: Inhibition of estradiol peak, in vivo aromatase inhibition model; design: species or system rat; conditions: female rats, 24 hours after one oral administration
Description: One hundred IOPS Wistar female rats, weighing 180 to 200 g, were accommodated by four in stainless steel mesh cages. […] Vaginal smears were performed for each animal, each morning, in order to establish the different phases of cycle. […] Starting at 4.00 pm, animals received an oral administration of formulations. 24 hours later, samples of serum were collected and estradiol level were determined as previously described (Table 4).

[1] = target: human carbonic anhydrase II (Homo sapiens, UniProt P00918); assay: Human carbonic anhydrase II activity (p-nitrophenyl acetate, colorimetric); format: biochemical; conditions: read-out: Human carbonic anhydrase II activity IC50 (nm) ± S.E.M.
Description: Briefly, in this assay, human carbonic anhydrase II catalyses the conversion of p-nitrophenyl acetate into pnitrophenol. The potential inhibitory effect of test compounds was evaluated by colorimetric determination of prnitrophenol produced during the enzymatic reaction. The optical density levels obtained without inhibitor will be referred to as “total activity”. The levels obtained without Inhibitor and without the enzyme will be referred to as “blank” in order to assess any interference with the substrate during the assay (Table 2).

For Cl.N#Cc1ccc(N(Cc2ccc(OS(N)(=O)=O)c(Br)c2)n2ccnc2)cc1 [Ex 45, Sulfamic acid 2-bromo-4-{[N-(4-cyanophenyl)-N-(1H-imidazol-1yl)amino]methyl}phenyl ester, hydrochloride], which IC50 (human steroid sulfatase) is on record?
Its IC50 is roughly 10 nM.

And the IC50 (human aromatase)?
The IC50 was less than 1 nM.

What about the “% inhibition (estradiol peak)” value (aromatase) of the same molecule?
The value was 28%.

And the IC50 [1]?
The IC50 was 16.2 ± 3.3 nM.

What about the melting point of the same molecule?
The melting point was 145 °C.

Source: US8476455B2, “1-N-phenyl-amino-1h-imidazole derivatives and pharmaceutical compositions containing them” (Laboratoire Theramex, priority 2003, dated 2013)
